Test results from patent US4797415A, “Benzofuran derivatives and use thereof for treating hyperuricemia” (Kotobuki Seiyaku Company Limited, priority 1982, dated 1989).
Like-named read-outs stand apart in the source and are kept apart here.

Legend:
[1] = tested on: phenol red retention in circulation; experiment: Uricosuric activity by phenol red retention test in mice; type: in vivo, male mice; details: mice, 30 min before 75 mg/kg phenol red, blood 60 min after phenol red; for response vs control in vivo at 200 mg/kg: Mus musculus, 1 h
Method: (§1) Blood samples were collected from the retro-orbital plexus into heparinized capillary tubes 60 minutes after the phenol red injection. The retention of phenol red in circulation was determined according to the method described in J. Med. Pharmaceu.
Benzobromarone was administered subcutaneously to mice in an amount of 200 mg./kg. as a control or standard.

phenol red retention = experiment: Uricosuric activity by phenol red method in rats; type: in vivo; details: p.o. 100 mg/kg
Method: as §1
The same test of uricosuric activity was applied to rats.

[2] = sc, s.c. 200 mg/kg, read-out: phenol red retention, percentage by comparison with the control group, S.C. (200 mg/kg)
[3] = po, p.o. 200 mg/kg, read-out: phenol red retention, percentage by comparison with the control group, P.O. (200 mg/kg)

Structure (SMILES)	response vs control in vivo at 200 mg/kg [1, 2] [%]	response vs control in vivo at 200 mg/kg [1, 3] [%]	further results
CCOC(=O)COc1ccc(C(=O)c2c(CC)oc3ccccc23)cc1Cl [Compound 20, Ethyl 2-chloro-4-(2-ethyl-3-benzofuroyl)phenoxyacetate]	128 ± 16.7	–	–
CCOC(=O)COc1ccc(C(OCC)c2c(CC)oc3ccccc23)cc1 (stereo not drawn) [Compound 14]	135 ± 34.6	120 ± 15	–
CCc1oc2ccccc2c1C(=O)c1cc(C)c(OCC(=O)OC)cc1C [Compound 37, Methyl 2,5-dimethyl-4-(2-ethyl-3-benzofuroyl)phenoxyacetate]	–	254 ± 15.6	–
CCOC(=O)COc1ccc(C(=O)c2c(CC)oc3ccccc23)c(C)c1C [Compound 34, Ethyl 2,3-dimethyl-4-(2-ethyl-3-benzofuroyl)phenoxyacetate]	–	124 ± 28.6	–
CCc1oc2ccccc2c1C(O)c1ccc(O)cc1 (stereo not drawn) [Compound 12, (2-ethyl-3-benzofuranyl)-4-hydroxyphenylmethanol]	100 ± 21.4	–	–
CCc1oc2ccccc2c1C(=O)c1ccc(OCCC(=O)O)cc1 [Compound 4, 4-(2-ethyl-3-benzofuroyl)phenoxypropionic acid]	143 ± 19	–	–
CCc1oc2ccccc2c1C(=O)c1ccc(OCc2nnn[nH]2)cc1 [Compound 43, 5-[4-(2-ethyl-3-benzofuroyl)phenoxymethyl]tetrazole]	–	430 ± 80	–
CCOC(=O)COc1c(C)cc(C(=O)c2c(CC)oc3ccccc23)cc1C [Compound 41, Ethyl 2,6-dimethyl-4-(2-ethyl-3-benzofuroyl)phenoxyacetate]	–	183 ± 27.8	–
CCc1oc2ccccc2c1C(=O)c1ccc(O)c(C)c1C [Compound 32, 2-ethyl-3-(2,3-dimethyl-4-hydroxybenzoyl)benzofuran]	–	112 ± 18.8	–
CCOC(=O)COc1cc(C)c(C(=O)c2c(CC)oc3ccccc23)cc1C [Compound 38, Ethyl 2,5-dimethyl-4-(2-ethyl-3-benzofuroyl)phenoxyacetate]	–	324 ± 19	–
CCc1oc2ccccc2c1C(=O)c1ccccc1OCC(=O)O [Compound 1, 2-(2-ethyl-3-benzofuroyl)phenoxyacetic acid]	152 ± 15.2	–	–
CCc1oc2ccccc2c1C(=O)c1ccc(OCC(=O)OC)cc1 [Compound 11, Methyl 4-(2-ethyl-3-benzofuroyl)phenoxyacetate]	114 ± 9.5	–	–
CCc1sc2ccccc2c1C(=O)c1ccc(O)cc1 [Compound 29, 2-ethyl-3-(4-hydroxybenzoyl)thianaphthene]	100 ± 21.4	–	–
CCc1oc2ccccc2c1C(=O)c1cc(C)c(OCC(=O)O)c(C)c1 [Compound 42, 2,6-dimethyl-4-(2-ethyl-3-benzofuroyl)phenoxyacetic acid]	–	394 ± 44.4	–
CCc1oc2ccccc2c1C(=O)c1ccc(OCc2nnn[nH]2)c(C)c1C [Compound 46, 5-[2,3-dimethyl-4-(2-ethyl-3-benzofuroyl)phenoxymethyl]tetrazole]	–	240 ± 64	–
CCc1oc2ccccc2c1C(=O)c1ccc(OCC(=O)NO)cc1 [Compound 8, 4-(2-ethyl-3-benzofuroyl)phenoxyacetohydroxamide]	167 ± 26.6	129 ± 17.6	–
CCOC(=O)COc1ccc(C(=O)c2c(CC)oc3ccccc23)cc1C [Compound 24, Ethyl 2-methyl-4-(2-ethyl-3-benzofuroyl)phenoxyacetate]	172 ± 27.7	–	–
CCc1oc2ccccc2c1C(=O)c1ccc(OC(C)C(=O)O)cc1 (stereo not drawn) [Compound 5, 4-(2-ethyl-3-benzofuroyl)phenoxy-2-methylacetic acid]	158 ± 15.1	176 ± 17.6	–
CCOC(=O)COc1ccc(C(=O)c2c(CC)oc3ccccc23)cc1[N+](=O)[O-] [Compound 27, Ethyl 2-nitro-4-(2-ethyl-3-benzofuroyl)phenoxyacetate]	111 ± 11.1	–	–
CCc1oc2ccccc2c1C(=O)c1ccc(OCC(=O)O)c(C)c1C [Compound 35, 2,3-dimethyl-4-(2-ethyl-3-benzofuroyl)phenoxyacetic acid]	–	319 ± 14.3	Phenol Red Retention % in Rats 100 mg/kg (p.o.) (phenol red retention): 269.0 ± 31.0%
CCc1oc2ccccc2c1C(=O)c1cc(C)c(O)c(C)c1 [Compound 40, 2-ethyl-3-(3,5-dimethyl-4-hydroxybenzoyl)benzofuran]	–	183 ± 22.2	–
CCc1sc2ccccc2c1C(=O)c1ccc(OCC(=O)O)cc1 [Compound 31, 4-(2-ethyl-3-benzothenoyl)phenoxyacetic acid]	144 ± 22.2	162 ± 31.3	–

Structure (SMILES)	response vs control in vivo at 200 mg/kg [1, 2] [%]	response vs control in vivo at 200 mg/kg [1, 3] [%]	further results
CCc1oc2ccccc2c1C(=O)c1cc(C)c(O)cc1C [Compound 36, 2-ethyl-3-(2,5-dimethyl-4-hydroxybenzoyl)benzofuran]	–	131 ± 15.6	–
CCc1oc2ccccc2c1C(=O)c1cc(C)c(OCc2nnn[nH]2)cc1C [Compound 47, 5-[2,5-dimethyl-4-(2-ethyl-3-benzofuroyl)phenoxymethyl]tetrazole]	–	232 ± 28	–
CCc1oc2ccccc2c1C(=O)c1ccc(O)c(Cl)c1 [Compound 19, 2-ethyl-3-benzofuranyl 3-chloro-4-hydroxyphenyl ketone]	105 ± 19	–	–
CCCCOC(=O)COc1ccc(C(OCCCC)c2c(CC)oc3ccccc23)cc1 (stereo not drawn) [Compound 15, Butyl 4-(2-ethyl-3-butoxymethylbenzofuranyl)phenoxyacetate]	165 ± 34.6	175 ± 35	–
Cc1oc2ccccc2c1C(=O)c1ccc(OCC(=O)O)cc1 [Compound 18, 4-(2-methyl-3-benzofuroyl)phenoxyacetic acid]	112 ± 15.4	135 ± 40	–
CCc1oc2ccccc2c1C(=O)c1ccc(O)c(C)c1 [Compound 23, 2-ethyl-3-benzofuranyl 3-methyl-4-hydroxyphenyl ketone]	81 ± 14.3	–	–
CCc1oc2ccccc2c1C(=O)c1ccc(OCC(=O)NCC(=O)OC)cc1 [Compound 9, Methyl 4-(2-ethyl-3-benzofuroyl)phenoxyacetoglycinate]	125 ± 18.8	153 ± 15.8	–
CCc1oc2ccccc2c1C(=O)c1ccc(OCc2nnn[nH]2)c(Cl)c1 [Compound 44, 5-[2-chloro-4-(2-ethyl-3-benzofuroyl)phenoxymethyl]tetrazole]	–	175 ± 17.9	–
CCc1oc2ccccc2c1C(=O)c1ccc(OCC(=O)NCC(N)=O)cc1 [Compound 10, 4-(2-ethyl-3-benzofuroyl)phenoxyacetoglycinamide]	123 ± 23.1	132 ± 26.3	–
CCc1oc2ccccc2c1C(=O)c1ccc(OCC(=O)O)c(Cl)c1 [Compound 22, 2-chloro-4-(2-ethyl-3-benzofuroyl)phenoxyacetic acid]	211 ± 33.3	190 ± 26.3	Phenol Red Retention % in Rats 100 mg/kg (p.o.) (phenol red retention): 217.2 ± 17.2%
CCc1oc2ccccc2c1C(=O)c1cccc(OCC(=O)O)c1 [Compound 2, 3-(2-ethyl-3-benzofuroyl)phenoxyacetic acid]	180 ± 15.4	–	–
CCc1oc2ccccc2c1C(=O)c1cc(C)c(OCc2nnn[nH]2)c(C)c1 [Compound 48, 5-[2,6-dimethyl-4-(2-ethyl-3-benzofuroyl)phenoxymethyl]tetrazole]	–	296 ± 56	–
CCOC(=O)COc1ccc(C(O)c2c(CC)oc3ccccc23)cc1 (stereo not drawn) [Compound 13, Ethyl 4-(2-ethyl-3-hydroxymethylbenzofuranyl)phenoxyacetate]	114 ± 14.3	–	–
CCOC(=O)COc1ccc(C(=O)c2c(CC)sc3ccccc23)cc1 [Compound 30, Ethyl 4-(2-ethyl-3-benzothenoyl)phenoxyacetate]	85.7 ± 14.3	–	–
CCc1oc2ccccc2c1C(=O)c1ccc(OCC(N)=O)cc1 [Compound 7, 4-(2-ethyl-3-benzofuroyl)phenoxyacetamide]	123 ± 23.1	104 ± 8.3	–
CCOC(=O)COc1ccc(C(=O)c2c(CC)oc3ccccc23)cc1 [Compound 6, Ethyl 4-(2-ethyl-3-benzofuroyl)phenoxyacetate]	207 ± 32.5	119 ± 2.3	–
C=C(CC(=O)c1c(CC)oc2ccccc12)C(=O)O [Compound 21, 2-methylene-4-oxo-4-(2-ethyl-3-benzofuranyl)butyric acid]	100 ± 13.6	165 ± 21.7	–
CCc1oc2ccccc2c1C(=O)c1ccc(OCc2nnn[nH]2)c(C)c1 [Compound 45, 5-[2-methyl-4-(2-ethyl-3-benzofuroyl)phenoxymethyl]tetrazole]	–	218 ± 21.4	–
CCc1oc2ccccc2c1C(=O)c1ccc(OCC(=O)OC)c(C)c1C [Compound 33, Methyl 2,3-dimethyl-4-(2-ethyl-3-benzofuroyl)phenoxyacetate]	–	133 ± 15.6	–
CCc1oc2ccccc2c1C(=O)c1ccc(O)c([N+](=O)[O-])c1 [Compound 26, 2-ethyl-3-benzofuranyl 3-nitro-4-hydroxyphenyl ketone]	–	–	phenol red retention, percentage by comparison with the control group, S.C. (given at a dose of 100 mg/kg) ([1]; s.c. 100 mg/kg (footnote *)): 222.2 ± 27.7%
Cc1oc2ccccc2c1C(=O)c1ccc(O)cc1 [Compound 16, 2-methyl-3-(4-hydroxybenzoyl)benzofuran]	111 ± 11.1	112 ± 12.5	–
CCOC(=O)COc1ccc(C(=O)c2c(C)oc3ccccc23)cc1 [Compound 17, Ethyl 4-(2-methyl-3-benzofuroyl)phenoxyacetate]	115 ± 19.2	105 ± 10	–
